From patent publication US12667549B2 (DOMPÉ FARMACEUTICI S.P.A., priority 2020, dated 2026)
Entries after “also recorded” stand apart in the source; their conditions may differ.

Experiments:
[1] = cited from earlier work
osteoarthritis = details: prolonged administration; cited from earlier work
[2] = Plasma and brain levels of Gabapentin after oral administration as capsules; details: male, Sprague-Dawley, rat, in vivo, 2 capsules
[3] = system: carrageenan-induced rat paw edema; test: Inflammatory pain in rats induced by carrageenan intraplantar injection (paw edema); assay type: in vivo, Male Wistar rats; details: oral capsules 1 h before 1% carrageenan; KL Co-xx 47.1 mg/kg, Gabapentin 20.4 mg/kg, admixture 47.1+20.4 mg/kg; FIGS. 4 and 5
Source text: Rat chow and tap water were available ad libitum. […] Animal care was in compliance with Italian Legislative Decree (D.L. 116/92) and European Commission Directive (O.J. of E.C. L358/1, 18/12/86) regulations on the protection of laboratory animals. All efforts were made to minimize animal suffering and the number of animals used.
Edema was expressed as the mean increase in paw volume (ml) relative to control animals.

[4] = in vivo; cited from earlier work

## NCC1(CC(=O)O)CCCCC1 [Gabapentin]
[1]; after oral administration
  time of utmost level in plasma: 3 to 4 h
[1]; in vivo
  binding to plasma proteins: does not attach to plasma proteins
  hepatic metabolism: neither inhibited nor metabolized by hepatic enzymes
[1]; renal excretion
  excretion half-life: roughly 6 hours
osteoarthritis
  start of therapeutic effect in osteoarthritis (duration of administration): 3 months
[2]
  Kp at 2 h: 0.378
[3]
  anti-inflammatory effect on carrageenan-evoked edema (paw volume, % inhibition): less effective; also recorded: little active on inflammatory pain
[4]
  side effect: ataxia: 13%
  side effect: dizziness: 18%
  side effect: fatigue: 11%
  side effect: somnolence: 20%
